Results published in patent publication US20090048301A1 (IMCLONE SYSTEMS INCORPORATED, priority 2003, published 2009).
Where “and” joins values, the source holds several entries; their conditions need not be identical. Identical values can stand only once. Like-named read-outs stand apart in the source and are kept apart here.

Legend:
[1] = test system: A431, human epidermoid carcinoma cells; experiment: Cell cycle analysis (FACS), mitotic arrest in G2/M; assay type: cell-based; settings: read-out: FACS Assay: concentration required to achieve inhibition in FACS assay
How it was run: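 A431 cells, 500,000/well at treatment, exposed to compounds at 0.01–1 μM final (0.1% DMSO) for 24 h. Ethanol-fixed cells RNase-treated (1 μg/ml, 37° C., 15 min), stained with propidium iodide (50 μg/ml, 30 min, RT). DNA ploidy by flow cytometry; mitotic arrest scored as G2/M accumulation.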

bovine tubulin = experiment: In vitro tubulin polymerization assay (turbidity at 340 nm); assay type: biochemical; settings: 10 μM compound, 30 minute data point, vs 1% DMSO control
How it was run: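 Percent inhibition derives from turbidity (340 nm) at 30 min relative to 1% DMSO controls, read every minute at 37° C. Polymerization mix: 3 mg/ml bovine tubulin, <3% MAPs, in PIPES pH 7 G-PEM with 1 mM GTP, 1 mM MgCl2, 5% glycerol; enhancers also detectable.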

SMILES	minimal effective concentration ([1]; Homo sapiens, A-431, 24 h) [µM]	Tubulin Assay: percent inhibition at 10 μM based on 30 minute data (bovine tubulin)	minimal effective concentration ([1]; 24 hours) [µM]
Fc1ccc(CNc2ncccc2-c2nnc(Nc3ccc4c(c3)OCO4)o2)cc1 [Compound 172, {3-[5-(Benzo[1,3]dioxol-5-ylamino)-[1,3,4]oxadiazol-2-yl]-pyridin-2-yl}-(4-fluoro-benzyl)-amine]	0.1	95% and 87%	
c1cnc(NCC2CCCO2)c(-c2nnc(Nc3ccc4c(c3)OCCO4)o2)c1 (stereo not drawn) [Compound 175, {3-[5-(2,3-Dihydro-benzo[1,4]dioxin-6-ylamino)-[1,3,4]oxadiazol-2-yl]-pyridin-2-yl}-(tetrahydro-furan-2-ylmethyl)-amine]	0.1	90%	
c1cnc(NCc2ccc3c(c2)OCO3)c(-c2nnc(Nc3ccc4c(c3)OCCO4)o2)c1 [Compound 195, Benzo[1,3]dioxol-5-ylmethyl-{3-[5-(2,3-dihydro-benzo[1,4]dioxin-6-ylamino)-[1,3,4]oxadiazol-2-yl]-pyridin-2-yl}-amine]	0.01	73%	
c1cnc(NCc2ccc3c(c2)OCCO3)c(-c2nnc(Nc3ccc4c(c3)OCO4)o2)c1 [Compound 196, {3-[5-(Benzo[1,3]dioxol-5-ylamino)-[1,3,4]oxadiazol-2-yl]-pyridin-2-yl}-(2,3-dihydro-benzo[1,4]dioxin-6-ylmethyl)-amine]	1	93%	
COc1cc(Nc2nnc(-c3cccnc3NCc3ccco3)o2)cc(OC)c1OC [Compound 197, Furan-2-ylmethyl-{3-[5-(3,4,5-H trimethoxy-phenylamino)-[1,3,4]oxadiazol-2-yl]-pyridin-2-yl}-amine]	1	66%	
c1cnc(NCc2ccc3c(c2)CCO3)c(-c2nnc(Nc3ccc4c(c3)OCO4)o2)c1 [Compound 198, {3-[5-(Benzo[1,3]dioxol-5-ylamino)-[1,3,4]oxadiazol-2-yl]-pyridin-2-yl}-(2,3-dihydro-benzofuran-5-ylmethyl)-amine]	0.1	87%	
c1cnc(NCc2ccc3c(c2)CCO3)c(-c2nnc(Nc3ccc4c(c3)OCCO4)o2)c1 [Compound 199, {3-[5-(2,3-Dihydro-benzo[1,4]dioxin-6-ylamino)-[1,3,4]oxadiazol-2-yl]-pyridin-2-yl}-(2,3-dihydro-benzofuran-5-ylmethyl)-amine]	0.1	88%	
c1cnc(NCC2COCCO2)c(-c2nnc(Nc3ccc4c(c3)OCO4)o2)c1 (stereo not drawn) [Compound 202, {3-[5-(Benzo[1,3]dioxol-5-ylamino)-[1,3,4]oxadiazol-2-yl]-pyridin-2-yl}-[1,4]dioxan-2-ylmethyl-amine]	0.1	89%	
c1cnc(NCC2COCCO2)c(-c2nnc(Nc3ccc4c(c3)OCCO4)o2)c1 (stereo not drawn) [Compound 203, {3-[5-(2,3-Dihydro-benzo[1,4]dioxin-6-ylamino)-[1,3,4]oxadiazol-2-yl]-pyridin-2-yl}-[1,4]dioxan-2-ylmethyl-amine]	0.1	69%	
c1coc(CNc2ncccc2-c2nnc(Nc3ccc4c(c3)OCCO4)o2)c1 [Compound 205, {3-[5-(2,3-Dihydro-benzo[1,4]dioxin-6-ylamino)-[1,3,4]oxadiazol-2-yl]-pyridin-2-yl}-furan-2-ylmethyl-amine]		56%	1
c1cnc(NCc2ccncc2)c(-c2nnc(Nc3ccc4c(c3)OCCO4)o2)c1 [Compound 206, {3-[5-(2,3-Dihydro-benzo[1,4]dioxin-6-ylamino)-[1,3,4]oxadiazol-2-yl]-pyridin-2-yl}-pyridin-4-ylmethyl-amine]	0.025	94%	
c1ccc(CNc2ncccc2-c2nnc(Nc3ccc4c(c3)OCCO4)o2)nc1 [Compound 207, {3-[5-(2,3-Dihydro-benzo[1,4]dioxin-6-ylamino)-[1,3,4]oxadiazol-2-yl]-pyridin-2-yl}-pyridin-2-ylmethyl-amine]	0.025	87%	
c1cnc(OCc2ccc3c(c2)OCO3)c(-c2nnc(Nc3ccc4c(c3)OCCO4)o2)c1 [Compound 209, {5-[2-(Benzo[1,3]dioxol-5-ylmethoxy)-pyridin-3-yl]-[1,3,4]oxadiazol-2-yl}-(2,3-dihydro-benzo[1,4]dioxin-6-yl)-amine]	1	80%	
Brc1cnn(-c2ncccc2-c2nnc(Nc3ccc4c(c3)OCO4)o2)c1 [Compound 210, Benzo[1,3]dioxol-5-yl-{5-[2-(4-bromo-pyrazol-1-yl)-pyridin-3-yl]-[1,3,4]oxadiazol-2-yl}-amine]	1	87%	
c1cncc(CNc2ccccc2-c2nnc(Nc3ccc4c(c3)OCCO4)o2)c1 [Compound 216, (2,3-Dihydro-benzo[1,4]dioxin-6-yl)-(5-{2-[(pyridin-3-ylmethyl)-amino]-phenyl}-[1,3,4]oxadiazol-2-yl)-amine]	0.1	94%	
c1ccc(CNc2ccccc2-c2nnc(Nc3ccc4c(c3)OCCO4)o2)nc1 [Compound 217, (2,3-Dihydro-benzo[1,4]dioxin-6-yl)-(5-{2-[(pyridin-2-ylmethyl)-amino]-phenyl}-[1,3,4]oxadiazol-2-yl)-amine]	0.1	100%	
c1ccc(-c2nnc(Nc3ccc4c(c3)OCCO4)o2)c(NCc2ccc3c(c2)OCO3)c1 [Compound 218, (5-{2-[(Benzo[1,3]dioxol-5-ylmethyl)-amino]-phenyl}-[1,3,4]oxadiazol-2-yl)-(2,3-dihydro-benzo[1,4]dioxin-6-yl)-amine]	0.1	74%	
COc1cc(CNc2ccccc2-c2nnc(Nc3ccc4c(c3)OCCO4)o2)cc(OC)c1 [Compound 219, (2,3-Dihydro-benzo[1,4]dioxin-6-yl)-{5-[2-(3,5-dimethoxy-benzylamino)-phenyl]-[1,3,4]oxadiazol-2-yl}-amine]	0.1	63%	
c1ccc(-c2nnc(Nc3ccc4c(c3)OCO4)o2)c(NCc2cn[nH]c2)c1 [Compound 224, Benzo[1,3]dioxol-5-yl-(5-{2-[(1H-pyrazol-4-ylmethyl)-amino]-phenyl}-[1,3,4]oxadiazol-2-yl)-amine]	1	81%	
COc1cccc(S(=O)(=O)Nc2ccccc2-c2nnc(Nc3ccc4c(c3)OCO4)o2)c1 [Compound 237, N-{2-[5-(Benzo[1,3]dioxol-5-ylamino)-[1,3,4]oxadiazol-2-yl]-phenyl}-3-methoxy-benzenesulfonamide]	1	99%	
Nc1ccccc1-c1nnc(Nc2ccc3c(c2)OCCO3)o1 [Compound 241, [5-(2-Amino-phenyl)-[1,3,4]oxadiazol-2-yl]-(2,3-dihydro-benzo[1,4]dioxin-6-yl)-amine]	1	75%	
